Values of other authors, collected in patent US20240398845A1, “USE OF SGLT-2 INHIBITORS FOR THE PREVENTION AND/OR TREATMENT OF CARDIAC DISEASES IN NON-HUMAN MAMMALS EXCLUDING FELINES, IN PARTICULAR CANINES” (BOEHRINGER INGELHEIM VETMEDICA GMBH, priority 2021, published 2024).

Legend:
[1] = tested on: canine atrial fibrillation model; details: cited from earlier work
[2] = tested on: mitral regurgitation-induced myocardial dysfunction; details: cited from earlier work
[3] = tested on: adults with heart failure and reduced ejection fraction; details: with and without diabetes; cited from earlier work
[4] = tested on: non-diabetic heart failure; details: cited from earlier work
Stage B2 dogs (MMVD) = details: cited from earlier work

Compound: Cc1ccc([C@@H]2O[C@H](CO)[C@@H](O)[C@H](O)[C@H]2O)cc1Cc1ccc(-c2ccc(F)cc2)s1 [canagliflozin, Canagliflozin]
- atrial remodeling [1]: suppresses atrial remodeling

Compound: CCOc1ccc(Cc2cc([C@@H]3O[C@H](CO)[C@@H](O)[C@H](O)[C@H]3O)ccc2Cl)cc1 [dapagliflozin, Dapagliflozin]
- cardiac hemodynamics and arrhythmogenesis [2]: improves cardiac hemodynamics and mitigates arrhythmogenesis

Compound: OC[C@H]1O[C@@H](c2ccc(Cl)c(Cc3ccc(O[C@H]4CCOC4)cc3)c2)[C@H](O)[C@@H](O)[C@@H]1O [empagliflozin, Empagliflozin]
- risk for the composite endpoint of cardiovascular death or hospitalization due to heart failure [3]: reduced the risk
- adverse left ventricular remodeling [4]: ameliorates adverse left ventricular remodeling

Compound: COc1ccc(-c2nc3ccc(C4=NNC(=O)CC4C)cc3[nH]2)cc1 (centres unmarked) [pimobendan]
- preclinical period (Stage B2 dogs (MMVD)): prolongation of the preclinical period
